Values joined by “and” are separate entries in the source; they are usually repeats but may differ in a detail not shown here. Identical values can stand only once.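 Cells were grown in 96-well plates and exposed to each compound for 48 hours at five concentrations; endpoints were interpolated linearly between bracketing concentrations, or set to the highest concentration if not reached. GI50 marks 50% less growth. TGI: total growth inhibition.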 Bounds are passed on as bounds.

The first test has as its system MDA-MB-435. In words: NCI-60 cell line screen, 48 h.
As to `COc1ccc(/C(Nc2ccccc2)=C(\CCl)c2ccccc2)cc1OC`, the TGI is > 100 µM.

Another test relates to OVCAR-5 ovarian. Description: NCI-60 cell line screen, 48 h.
Take `O=C(NCCN(CCNC(=O)c1cccc(O)c1O)CCNC(=O)c1cccc(O)c1O)c1cccc(O)c1O`: the TGI was > 100 µM.
`COc1cc2nc(Cl)nc(NS(=O)(=O)c3cc4ccccc4s3)c2cc1OC`: the TGI worked out at 50 µM.
Take `C[C@@H](CC(=O)OCc1ccccc1)OC1OC(COC(=O)C(C)(C)C)C(OC(=O)C(C)(C)C)C(OC(=O)C(C)(C)C)C1OC(=O)C(C)(C)C` (stereo partly specified): the TGI is > 100 µM.
Still for that read-out and setting: then `CC(C)(C)OC(=O)N(CCCCNC(=O)C(F)(F)F)CCCNC(=O)C(F)(F)F`, with > 100 µM; and `C=C1CC[C@@H](CCC2CCC3(OC2)O[C@]2(O)CC[C@@]3(C)OC2(C)C)C(C)(C)[C@H]1C/C=C1\CCOC1=O` (stereo partly specified), with > 100 µM.
The same measure, in the same setting: then `Cc1nc2c(sc3nc4c(cc32)CCC4)c(=O)o1`, with > 100 µM; and `COc1ccccc1C1c2cc3c(cc2OC2(OC)COC(=O)C12)OCO3` (stereo unspecified), with > 100 µM; and `COc1cc([C@@H]2c3cc4c(cc3[C@@H](Nc3ccc(NC(=O)c5cc([N+](=O)[O-])cn5C)cc3)[C@H]3COC(=O)[C@H]23)OCO4)cc(OC)c1O`, with 10.4 µM.
On the same count and under the same terms, in the case of `COc1ccc(/C(Nc2ccccc2)=C(\CCl)c2ccccc2)cc1OC` it was > 100 µM.

Another test relates to OVCAR-8 ovarian. In words: NCI-60 cell line screen, 48 h.
The compound `O=C(NCCN(CCNC(=O)c1cccc(O)c1O)CCNC(=O)c1cccc(O)c1O)c1cccc(O)c1O` returned a TGI of 49.4 µM.
Still for that read-out and setting: in the case of `COc1cc2nc(Cl)nc(NS(=O)(=O)c3cc4ccccc4s3)c2cc1OC` it was > 100 µM; in that of `C[C@@H](CC(=O)OCc1ccccc1)OC1OC(COC(=O)C(C)(C)C)C(OC(=O)C(C)(C)C)C(OC(=O)C(C)(C)C)C1OC(=O)C(C)(C)C` (stereo partly specified), > 100 µM; in that of `CC(C)(C)OC(=O)N(CCCCNC(=O)C(F)(F)F)CCCNC(=O)C(F)(F)F`, > 100 µM.
Turning to `C=C1CC[C@@H](CCC2CCC3(OC2)O[C@]2(O)CC[C@@]3(C)OC2(C)C)C(C)(C)[C@H]1C/C=C1\CCOC1=O` (stereo partly specified), the TGI was > 100 µM.
As for `Cc1nc2c(sc3nc4c(cc32)CCC4)c(=O)o1`, the TGI is > 93.7 µM.
The same measure, in the same setting: in the case of `COc1ccccc1C1c2cc3c(cc2OC2(OC)COC(=O)C12)OCO3` (stereo unspecified) it was > 74.6 µM; in that of `COc1cc([C@@H]2c3cc4c(cc3[C@@H](Nc3ccc(NC(=O)c5cc([N+](=O)[O-])cn5C)cc3)[C@H]3COC(=O)[C@H]23)OCO4)cc(OC)c1O`, 1.04 µM.
Still for that read-out and setting: then `COc1ccc(/C(Nc2ccccc2)=C(\CCl)c2ccccc2)cc1OC`, with > 100 µM.

Another test relates to HCT-15 colon. Description: NCI-60 cell line screen, 48 h.
In the case of `O=C(NCCN(CCNC(=O)c1cccc(O)c1O)CCNC(=O)c1cccc(O)c1O)c1cccc(O)c1O`, the TGI was > 100 µM.
Still for that read-out and setting: then `COc1cc2nc(Cl)nc(NS(=O)(=O)c3cc4ccccc4s3)c2cc1OC`, with > 100 µM.
For `C[C@@H](CC(=O)OCc1ccccc1)OC1OC(COC(=O)C(C)(C)C)C(OC(=O)C(C)(C)C)C(OC(=O)C(C)(C)C)C1OC(=O)C(C)(C)C` (stereo partly specified), the TGI was > 100 µM.
On the same count and under the same terms, in the case of `CC(C)(C)OC(=O)N(CCCCNC(=O)C(F)(F)F)CCCNC(=O)C(F)(F)F` it was > 100 µM; in that of `C=C1CC[C@@H](CCC2CCC3(OC2)O[C@]2(O)CC[C@@]3(C)OC2(C)C)C(C)(C)[C@H]1C/C=C1\CCOC1=O` (stereo partly specified), > 81.4 µM; in that of `Cc1nc2c(sc3nc4c(cc32)CCC4)c(=O)o1`, 99.6 µM.
Still for that read-out and setting: in the case of `COc1ccccc1C1c2cc3c(cc2OC2(OC)COC(=O)C12)OCO3` (stereo unspecified) it was > 100 µM.
Regarding `COc1cc([C@@H]2c3cc4c(cc3[C@@H](Nc3ccc(NC(=O)c5cc([N+](=O)[O-])cn5C)cc3)[C@H]3COC(=O)[C@H]23)OCO4)cc(OC)c1O`, the GI50 was 0.192 µM; the TGI is 1.54 µM and 2.48 µM.
`COc1ccc(/C(Nc2ccccc2)=C(\CCl)c2ccccc2)cc1OC`: the TGI was > 100 µM.

A further test relates to UACC-257 melanoma. Description: NCI-60 cell line screen, 48 h.
On to `O=C(NCCN(CCNC(=O)c1cccc(O)c1O)CCNC(=O)c1cccc(O)c1O)c1cccc(O)c1O`, for which the TGI was > 100 µM.
Still for that read-out and setting: then `COc1cc2nc(Cl)nc(NS(=O)(=O)c3cc4ccccc4s3)c2cc1OC`, with > 100 µM; and `C[C@@H](CC(=O)OCc1ccccc1)OC1OC(COC(=O)C(C)(C)C)C(OC(=O)C(C)(C)C)C(OC(=O)C(C)(C)C)C1OC(=O)C(C)(C)C` (stereo partly specified), with > 100 µM.
Same read-out and setting: then `CC(C)(C)OC(=O)N(CCCCNC(=O)C(F)(F)F)CCCNC(=O)C(F)(F)F`, with > 100 µM; and `C=C1CC[C@@H](CCC2CCC3(OC2)O[C@]2(O)CC[C@@]3(C)OC2(C)C)C(C)(C)[C@H]1C/C=C1\CCOC1=O` (stereo partly specified), with > 67.6 µM.
Take `Cc1nc2c(sc3nc4c(cc32)CCC4)c(=O)o1`: the TGI is > 100 µM.
The same measure, in the same setting: then `COc1ccccc1C1c2cc3c(cc2OC2(OC)COC(=O)C12)OCO3` (stereo unspecified), with > 100 µM; and `COc1cc([C@@H]2c3cc4c(cc3[C@@H](Nc3ccc(NC(=O)c5cc([N+](=O)[O-])cn5C)cc3)[C@H]3COC(=O)[C@H]23)OCO4)cc(OC)c1O`, with > 65.5 µM.
Still for that read-out and setting: in the case of `COc1ccc(/C(Nc2ccccc2)=C(\CCl)c2ccccc2)cc1OC` it was > 100 µM.

The subject of another test is MCF7 breast. In words: NCI-60 cell line screen, 48 h.
Turning to `O=C(NCCN(CCNC(=O)c1cccc(O)c1O)CCNC(=O)c1cccc(O)c1O)c1cccc(O)c1O`, the TGI is > 100 µM.
As for `COc1cc2nc(Cl)nc(NS(=O)(=O)c3cc4ccccc4s3)c2cc1OC`, the TGI is > 100 µM.
On the same count and under the same terms, in the case of `C[C@@H](CC(=O)OCc1ccccc1)OC1OC(COC(=O)C(C)(C)C)C(OC(=O)C(C)(C)C)C(OC(=O)C(C)(C)C)C1OC(=O)C(C)(C)C` (stereo partly specified) it was > 100 µM; in that of `CC(C)(C)OC(=O)N(CCCCNC(=O)C(F)(F)F)CCCNC(=O)C(F)(F)F`, > 100 µM; in that of `C=C1CC[C@@H](CCC2CCC3(OC2)O[C@]2(O)CC[C@@]3(C)OC2(C)C)C(C)(C)[C@H]1C/C=C1\CCOC1=O` (stereo partly specified), 28.9 µM.
`Cc1nc2c(sc3nc4c(cc32)CCC4)c(=O)o1`: the TGI is > 100 µM.
Same read-out and setting: then `COc1ccccc1C1c2cc3c(cc2OC2(OC)COC(=O)C12)OCO3` (stereo unspecified), with > 65.7 µM; and `COc1cc([C@@H]2c3cc4c(cc3[C@@H](Nc3ccc(NC(=O)c5cc([N+](=O)[O-])cn5C)cc3)[C@H]3COC(=O)[C@H]23)OCO4)cc(OC)c1O`, with > 31.6 µM; and `COc1ccc(/C(Nc2ccccc2)=C(\CCl)c2ccccc2)cc1OC`, with > 100 µM.

The test system of a further test is DU-145 prostate. In words: NCI-60 cell line screen, 48 h.
As to `O=C(NCCN(CCNC(=O)c1cccc(O)c1O)CCNC(=O)c1cccc(O)c1O)c1cccc(O)c1O`, the TGI was > 78.9 µM.
Still for that read-out and setting: in the case of `COc1cc2nc(Cl)nc(NS(=O)(=O)c3cc4ccccc4s3)c2cc1OC` it was 60.1 µM.
The same measure, in the same setting: in the case of `C[C@@H](CC(=O)OCc1ccccc1)OC1OC(COC(=O)C(C)(C)C)C(OC(=O)C(C)(C)C)C(OC(=O)C(C)(C)C)C1OC(=O)C(C)(C)C` (stereo partly specified) it was > 100 µM; in that of `CC(C)(C)OC(=O)N(CCCCNC(=O)C(F)(F)F)CCCNC(=O)C(F)(F)F`, > 100 µM.
Consider `C=C1CC[C@@H](CCC2CCC3(OC2)O[C@]2(O)CC[C@@]3(C)OC2(C)C)C(C)(C)[C@H]1C/C=C1\CCOC1=O` (stereo partly specified), for which the TGI was > 100 µM.
With `Cc1nc2c(sc3nc4c(cc32)CCC4)c(=O)o1`, the TGI was > 100 µM.
The same measure, in the same setting: in the case of `COc1ccccc1C1c2cc3c(cc2OC2(OC)COC(=O)C12)OCO3` (stereo unspecified) it was 69.4 µM.
On the same count and under the same terms, in the case of `COc1cc([C@@H]2c3cc4c(cc3[C@@H](Nc3ccc(NC(=O)c5cc([N+](=O)[O-])cn5C)cc3)[C@H]3COC(=O)[C@H]23)OCO4)cc(OC)c1O` it was 0.0772 µM and 0.0578 µM; in that of `COc1ccc(/C(Nc2ccccc2)=C(\CCl)c2ccccc2)cc1OC`, > 100 µM.

The record behind these values is PubChem BioAssay (NCI).
